From patent US7056907B2, “Mandelic acid derivatives and their use as thrombin inhibitors” (AstraZeneca AB, priority 2001, dated 2006) come the findings set out here.

pIC50: −log10 of the molar value.

For data set [1], the system named is pooled normal human citrated plasma. Kind of data set: Test D: Determination of Activated Partial Thromboplastin Time (APTT). To be noted: read-out: IC50 APTT (concentration of inhibitor in human plasma that doubles the Activated Partial Thromboplastin Time). The data set is classed as biochemical. The procedure: Determination of Activated Partial Thromboplastin Time (APTT)
APTT is determined in pooled normal human citrated plasma with the reagent PTT Automated 5 manufactured by Stago. The inhibitors are added to the plasma (10 μL inhibitor solution to 90 μL plasma) and incubated with the APTT reagent for 3 minutes followed by the addition of 100 μL of calcium chloride solution (0.025 M) and APTT is determined by use of the coagulation analyser KC10 (Amelung) according to the instructions of the reagent producer.
(§1) The clotting time is expressed as absolute values (seconds) as well as the ratio of APTT without inhibitor (APTT0) to APTT with inhibitor (APTTi). The latter ratios (range 1–0) are plotted against the concentration of inhibitor (log transformed) and fitted to sigmoidal dose-response curves according to the equation y=a/[1+(x/IC50)^s] where: a=maximum range, i.e. 1; s=slope of the dose-response curve; and IC50=the concentration of inhibitor that doubles the clotting time. The calculations are processed on a PC using the software program GraFit Version 3, setting equation equal to: Start at 0, define end=1 (Erithacus Software, Robin Leatherbarrow, Imperial College of Science, London, UK). IC50APTT is defined as the concentration of inhibitor in human plasma that doubles the Activated Partial Thromboplastin Time. Test E Determination of Thrombin Time ex vivo

Data set [2] can be described thus: Test G: Determination of in vitro Stability, rat liver microsomes. Type of data set: in vitro ADME, Sprague-Dawley rats. The conditions noted are these: liver microsomes from rats, 37° C., up to 60 min. As for the experimental part:
(§2) Plasma clearance is estimated in male Sprague Dawley rats. The compound is dissolved in water and administered as a subcutaneous bolus injection at a dose of 4 μmol/kg. Blood samples are collected at frequent intervals up to 5 hours after drug administration. Blood samples are centrifuged and plasma is separated from the blood cells and transferred to vials containing citrate (10% final concentration). 50 μL of plasma samples are precipitated with 100 μL of cold acetonitrile. The samples are centrifuged for 10 minutes at 4000 rpm. 75 μL of the supernatant is diluted with 75 μL of 0.2% formic acid. 10 μL volumes of the resulting solutions are analysed by LC-MS/MS and the concentrations of thrombin inhibitor are determined using standard curves. The area under the plasma concentration-time profile is estimated using the log/linear trapezoidal rule and extrapolated to infinite time. Plasma clearance (CL) of the compound is then determined as CL=Dose/AUC The values are reported in mL/min/kg. Test G Determination of in vitro Stability
(§3) Liver microsomes are prepared from Sprague-Dawley rats and human liver samples according to internal SOPs. […] The concentration of compound remaining (FINAL CONC) in the 60 min. sample is determined by means of LCMS using a sample collected at zero time as reference (START CONC). The % of degraded thrombin inhibitor is calculated as: […]
On the technique in general: Microsomes from liver hold many membrane-bound enzymes, among them those of drug oxidation.

A short description of data set [3]: Test E: Determination of Thrombin Time ex vivo (plasma concentration of thrombin inhibitor after oral or parenteral administration). Type of data set: in vivo, rat. To be noted: conscious rats, plasma analysed by LC-MS/MS.
Source text: as §1
The inhibition of thrombin after oral or parenteral administration of the compounds of the invention, dissolved in ethanol:SolutolK:water (5:5:90), is examined in conscious rats which, one or two days prior to the experiment, are equipped with a catheter for blood sampling from the carotid artery. […]
50 μL of plasma samples are precipitated with 100 μL of cold acetonitrile. […] 10 μL volumes of the resulting solutions are analysed by LC-MS/MS and the concentrations of thrombin inhibitor are determined using standard curves.

A short description of data set [4]: Test G: Determination of in vitro Stability, human liver microsomes. The data set is classed as in vitro ADME. To be noted: liver microsomes from humans, 37° C., up to 60 min. The procedure: as §2, §3

Consider `N=C(N)c1cc(F)c(CNC(=O)[C@@H]2CCN2C(=O)[C@H](O)c2cc(Cl)cc(OC(F)F)c2)c(F)c1` [Example 1, Ph(3-Cl)(5-OCHF2)—(R)CH(OH)C(O)—(S)Aze-Pab(2,6-diF)], for which, in data set [1], the pIC50 was above 6.00.
For the compound `CO/N=C(\N)c1cc(F)c(CNC(=O)[C@@H]2CCN2C(=O)[C@H](O)c2cc(Cl)cc(OC(F)F)c2)c(F)c1` [Example 2, Ph(3-Cl)(5-OCHF2)—(R)CH(OH)C(O)—(S)Aze-Pab(2,6-diF)(OMe)], the “conversion to the corresponding active inhibitor (free amidine) in liver microsomes” value in data set [2] and in data set [4] was “converted to the corresponding active inhibitor (free amidine)” throughout. The “oral and/or parenteral bioavailability as the corresponding active inhibitor (free amidine)” value in data set [3] is on record as “exhibit oral and/or parenteral bioavailability in the rat as the corresponding active inhibitor (free amidine)”.
